{"source": "patent US11000516B2", "about": "(priority 2015, dated 2021)", "key": {"[1]": {"test_system": "EDEN1 (clinical DENV1 isolate)", "assay": "Antiviral effect in BHK-21 cells, plaque assay of supernatant 48 h pi", "assay_type": "cell-based", "protocol": "(§1) Cells were infected with DENV strains for 1 hour at 37° C. and washed once with culture media. […] The supernatants were subjected to standard plaque assay and the EC50 values were determined using the GraphPad Prism software.\n(§2) NITD008, an adenosine analog inhibitor of DENV polymerase (Yin et al., 2009) was used as a positive control."}, "[2]": {"test_system": "EDEN2 (clinical DENV2 isolate)", "assay": "Antiviral effect in BHK-21 cells, plaque assay of supernatant 48 h pi", "assay_type": "cell-based", "settings": "Dengue virus, DENV2, BHK-21", "protocol": "as §1, §2"}, "[3]": {"test_system": "S221 (mouse-adapted DENV2 strain)", "assay": "Antiviral effect in BHK-21 cells, plaque assay of supernatant 48 h pi", "assay_type": "cell-based", "settings": "Dengue virus, DENV2, BHK-21", "protocol": "as §1, §2"}, "[4]": {"test_system": "EDEN1 (clinical DENV1 isolate)", "assay": "Antiviral effect in HuH-7 cells, plaque assay of supernatant 48 h pi", "assay_type": "cell-based", "protocol": "as §1, §2"}, "[5]": {"test_system": "EDEN2 (clinical DENV2 isolate)", "assay": "Antiviral effect in HuH-7 cells, plaque assay of supernatant 48 h pi", "assay_type": "cell-based", "protocol": "as §1, §2"}, "[6]": {"test_system": "S221 (mouse-adapted DENV2 strain)", "assay": "Antiviral effect in HuH-7 cells, plaque assay of supernatant 48 h pi", "assay_type": "cell-based", "protocol": "as §1, §2"}, "[7]": {"test_system": "EDEN1 (clinical DENV1 isolate)", "assay": "Ab-mediated infection of THP-1 cells with enhancing concentration of 4G2 Ab", "assay_type": "cell-based", "settings": "EDEN1, MOI 2, single experiment", "protocol": "as §1, §2"}, "[8]": {"test_system": "EDEN2 (clinical DENV2 isolate)", "assay": "Ab-mediated infection of THP-1 cells with enhancing concentration of 4G2 Ab", "assay_type": "cell-based", "settings": "EDEN2, MOI 50, single experiment", "protocol": "as §1, §2"}, "[9]": {"test_system": "S221 (mouse-adapted DENV2 strain)", "assay": "Ab-mediated infection of THP-1 cells with enhancing concentration of 4G2 Ab", "assay_type": "cell-based", "settings": "S221, MOI 2, single experiment", "protocol": "as §1, §2"}, "DENV2 strain #013": {"test_system": "DENV2 strain #013", "assay": "CELADEN clinical strain in HuH-7 cells, single concentration, virus titer by plaque assay", "assay_type": "cell-based", "settings": "strain #013, celgosivir 3 mM, 48 hours pi", "protocol": "(§3) EDEN1, EDEN2 and S221 were used as control virus strains. The MOI of each strain was indicated in supplementary FIG. 2. After 48 hours pi, virus titer in the supernatants was determined by standard plaque assay using BHK-21 cells. The percentages of virus titer were calculated based on virus infection control of each strain. Error bars indicate standard deviations from duplicate experiments. (B and C) Mice were inoculated i.v. with DENV2 strains, #031 (2×10^7 pfu), #013 (1×10^7 pfu) or #036 (2×10^7 pfu). […] Average viral copy numbers on day 1-2 were measured using mixed serum of each group. Viral copy number on day 3 was measured individually and the graphs show the average results with standard deviations. A P value less than 0.05 was considered significant (*P<0.05). […] Viral copy number on day 3-6 was measured individually and shown in the graphs as the average results with standard deviations. The VLR from day 3 to day 6 was also shown as the mean value and standard deviations. The number of mice per group is 6.\n(§4) Total 16 clinical DENV virus were recovered from serum of CELADEN trial patients with 8 of either DENV1 or DENV2 infection. […] The MOI was varied among strains to obtain similar levels of virus titer (within 10-fold difference). The MOI was 0.01 (EDEN1), 0.1 (#005, #048, #004, #033, #010, #013, #022, #036), 0.2 (#016, #017, #011, EDEN2, S221), 0.5 (#049, #038), 1 (#028, #031) and 2 (#025). After 48 hours post-infection, virus titer in the supernatants was determined by standard plaque assay using BHK-21 cells. Error bars indicate standard deviations from duplicate experiments.\n(§5) Since infection levels in HuH-7 cells are different among the strains, the MOI of each strain was varied to obtain similar levels of virus titer in the supernatant (FIG. 8)."}, "DENV2 strain #031": {"test_system": "DENV2 strain #031", "assay": "CELADEN clinical strain in HuH-7 cells, single concentration, virus titer by plaque assay", "assay_type": "cell-based", "settings": "strain #031, celgosivir 3 mM, 48 hours pi", "protocol": "as §3, §4, §5"}, "DENV2 strain #036": {"test_system": "DENV2 strain #036", "assay": "CELADEN clinical strain in HuH-7 cells, single concentration, virus titer by plaque assay", "assay_type": "cell-based", "settings": "strain #036, celgosivir 3 mM, 48 hours pi", "protocol": "as §3, §4, §5"}, "EDEN1": {"test_system": "EDEN1", "assay": "Non-lethal viremia mouse model", "assay_type": "in vivo, mice", "protocol": "(§6) Mice were inoculated i.v. with EDEN1 (7×10^7 pfu) or EDEN2 (1×10^8 pfu). […] Average viral copy numbers on day 1 and 2 were measured using mixed serum of each group. […] A P value less than 0.05 was considered significant (*P<0.05). The number of mice per group is 6. […] Average viral copy numbers on days 4 and 5 were measured using mixed serum of each group. […] The virological log reduction (VLR) from day 3 to day 6 was also shown as the mean value and standard deviations. The number of mice per group is 6.\n(§7) Since dengue fever patients in general present at a clinic when viremia is at a peak level (Low et al., 2014; Nguyen et al., 2013; Tricou et al., 2010), we next compared the 2 different dosing regimens; one started at the time of infection and another started at the time of peak viremia (on day 3 pi) similar to human situation (FIG. 4A). In this experiment, we used a non-lethal viremia mouse model, which permits the tracking of viremia kinetics for a longer period of time (FIG. 1B)."}, "EDEN2": {"test_system": "EDEN2", "assay": "Non-lethal viremia mouse model", "assay_type": "in vivo, mice", "protocol": "as §6, §7"}, "[10]": {"settings": "Dengue virus, DENV2, THP-1, THP-1 with 4G2 Ab"}}, "note": "pEC50: −log10 of the molar value."}
{"compound": "CCCC(=O)O[C@H]1CN2CC[C@H](O)[C@@H]2[C@@H](O)[C@@H]1O", "note": "[celgosivir]", "values": [{"measurement": "pEC50", "setting": "[1]; BHK-21, BHK-21, EDEN1, MOI 0.01", "result": 7.18}, {"measurement": "pEC50", "setting": "[1]; BHK-21, BHK-21, EDEN1, MOI 0.3", "result": 6.98}, {"measurement": "pEC50", "setting": "[2]", "result": 7.21}, {"measurement": "pEC50", "setting": "[3]", "result": 6.92}, {"measurement": "pEC50", "setting": "[4]; HuH-7, EDEN1, MOI 0.01", "result": 5.22}, {"measurement": "pEC50", "setting": "[4]; HuH-7, EDEN1, MOI 0.3", "result": 4.76}, {"measurement": "pEC50", "setting": "[4]; Huh-7, HuH-7, EDEN1, MOI 0.01", "result": 5.22}, {"measurement": "pEC50", "setting": "[4]; Huh-7, HuH-7, EDEN1, MOI 0.3", "result": 4.76}, {"measurement": "pEC50", "setting": "[5]; Dengue virus, DENV2, Huh-7, HuH-7, EDEN2, MOI 0.3", "result": 6.09}, {"measurement": "pEC50", "setting": "[5]; HuH-7, EDEN2, MOI 0.3", "result": 6.08}, {"measurement": "pEC50", "setting": "[6]; Dengue virus, DENV2, Huh-7, HuH-7, S221, MOI 0.3", "result": 5.29}, {"measurement": "pEC50", "setting": "[6]; HuH-7, S221, MOI 0.3", "result": 5.29}, {"measurement": "pEC50", "setting": "[7]; THP-1, THP-1 with 4G2 Ab", "result": 5.49}, {"measurement": "pEC50", "setting": "[7]; THP-1 with 4G2 Ab", "result": 5.49}, {"measurement": "pEC50", "setting": "[8]; [10]", "result": 6.10}, {"measurement": "pEC50", "setting": "[8]; THP-1 with 4G2 Ab", "result": 6.12}, {"measurement": "pEC50", "setting": "[9]; [10]", "result": 5.68}, {"measurement": "pEC50", "setting": "[9]; THP-1 with 4G2 Ab", "result": 5.67}, {"measurement": "reduction in virus titer in the supernatant of HuH-7 cells", "setting": "DENV2 strain #013", "result": 67, "unit": "%"}, {"measurement": "reduction in virus titer in the supernatant of HuH-7 cells", "setting": "DENV2 strain #031", "result": 52, "unit": "%"}, {"measurement": "reduction in virus titer in the supernatant of HuH-7 cells", "setting": "DENV2 strain #036", "result": 70, "unit": "%"}, {"measurement": "log reduction of viremia (VLR) from day 3 to day 6", "setting": "EDEN1; EDEN1, celgosivir 50 mg/kg BID started at peak viremia (day 3)", "result": 0.85}, {"measurement": "viremia reduction on day 3 pi", "setting": "EDEN1; EDEN1, non-lethal model, celgosivir 50 mg/kg BID from time of infection", "result": 2.9, "unit": "fold"}, {"measurement": "log reduction of viremia (VLR) from day 3 to day 6", "setting": "EDEN2; EDEN2, celgosivir 50 mg/kg BID started at peak viremia (day 3)", "result": 2.62}, {"measurement": "viremia reduction on day 3 pi", "setting": "EDEN2; EDEN2, non-lethal model, celgosivir 50 mg/kg BID from time of infection", "result": 9.0, "unit": "fold"}]}
